Key:
[1] = target: Phosphatidylinositol 4,5-bisphosphate 3-kinase catalytic subunit alpha isoform (Homo sapiens, UniProt P42336); test: Inhibition of PI3K alpha (unknown origin)
[2] = target: Serine/threonine-protein kinase mTOR (Homo sapiens, UniProt P42345); test: Inhibition of human mTOR measured after 30 mins in presence of ATP by Lanthascreen TR-FRET assay

Phosphatidylinositol 4,5-bisphosphate 3-kinase catalytic subunit alpha isoform, sequence (P42336 whole entry, canonical isoform): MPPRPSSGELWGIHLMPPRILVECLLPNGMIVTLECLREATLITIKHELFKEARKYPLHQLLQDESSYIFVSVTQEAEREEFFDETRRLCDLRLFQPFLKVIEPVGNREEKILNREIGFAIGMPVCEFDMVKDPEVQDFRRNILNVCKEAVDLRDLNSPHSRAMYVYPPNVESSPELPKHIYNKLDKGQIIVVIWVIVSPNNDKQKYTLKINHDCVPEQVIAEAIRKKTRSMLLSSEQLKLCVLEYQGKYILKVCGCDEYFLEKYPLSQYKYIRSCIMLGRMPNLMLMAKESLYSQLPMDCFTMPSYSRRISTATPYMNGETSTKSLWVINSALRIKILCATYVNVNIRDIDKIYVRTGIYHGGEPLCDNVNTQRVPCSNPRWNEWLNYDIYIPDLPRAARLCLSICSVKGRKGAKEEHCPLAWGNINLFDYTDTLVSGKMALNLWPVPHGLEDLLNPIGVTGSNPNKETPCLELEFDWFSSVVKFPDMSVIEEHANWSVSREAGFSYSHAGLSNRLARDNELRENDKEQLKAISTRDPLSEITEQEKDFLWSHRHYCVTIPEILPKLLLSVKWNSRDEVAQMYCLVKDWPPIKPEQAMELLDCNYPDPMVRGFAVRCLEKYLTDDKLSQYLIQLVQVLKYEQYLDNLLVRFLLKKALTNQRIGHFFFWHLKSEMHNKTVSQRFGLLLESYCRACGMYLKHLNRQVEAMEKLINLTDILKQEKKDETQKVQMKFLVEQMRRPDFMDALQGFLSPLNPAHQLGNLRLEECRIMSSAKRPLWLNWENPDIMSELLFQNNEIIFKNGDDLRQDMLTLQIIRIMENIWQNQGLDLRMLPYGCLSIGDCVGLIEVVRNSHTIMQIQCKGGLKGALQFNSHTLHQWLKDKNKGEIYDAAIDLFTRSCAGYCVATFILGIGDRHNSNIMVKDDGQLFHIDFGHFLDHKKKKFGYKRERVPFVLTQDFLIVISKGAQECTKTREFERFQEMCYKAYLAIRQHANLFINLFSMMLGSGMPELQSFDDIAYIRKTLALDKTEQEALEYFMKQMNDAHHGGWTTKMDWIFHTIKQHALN

IC50 [1]: 2510 nM
IC50 [2]: 1580 nM
SMILES: CNC(=O)Nc1ccc(-c2ncc3c(n2)N2CCOCC2CC(=O)N3)cc1 (configuration not stated)

Reference: ChEMBL document CHEMBL4359925, “Rational discovery of a highly novel and selective mTOR inhibitor” (Bioorg Med Chem Lett, 2019)
